Results published in patent publication US20250171753A1, “PEPTIDE AND USE THEREOF IN THE PREVENTION OF THERAPY-RELATED LEUKEMIA” (UNIVERSITÄT ULM, priority 2022, published 2025).
Where no end group is shown, it is not given here.

Tests used:
[1] = system: K562/MLL cells; assay: Cell survival of K562/MLL cells by FSC/SSC gating in FACS; type: cell-based; conditions: for effect of peptide on cell survival after doxorubicin treatment: K562/MLL nucleofected with 0-600 μg peptide per 1×10^6 cells; for effect of peptide on cell survival after doxorubicin treatment / cell survival: 2 μM doxorubicin 4 h; for cell survival: 72 h; for toxic effects toward leukemia cells (summary statement): leukemia cells after doxorubicin treatment; for toxicity of the peptide in K562/MLL cells: K562/MLL nucleofected with different peptide concentrations, 2 μM doxorubicin
Method: (§1) K562/MLL cells were divided 1:2 before the start of the experiment and transfected with the plasmid (2×10^6 cells) or nucleofected with the peptide (1×10^6 cells) on the second day. After 24 h, the cells were then treated with 2 μM doxorubicin (Uniklinik Ulm, Germany) and after 4 h incubation, the cells were centrifuged, the supernatant discarded and the cells taken up in 2 ml PBS (Gibco/Thermo Fisher Scientific). After centrifugation again, the supernatant was discarded and the cells were seeded in 2 ml of new culture medium for 72 h.
Use of the fluorescence-based assay system for recombination measurements with K562/MLL or HeLa/MLL cells with chromosomally integrated plasmid pHR-EGFP/3′EGFP-MLLbcr.fwd is described in detail in Ireno et al. 2014 and Gole et al. 2015, respectively. For the acquisition of recombination data, cells were harvested, pelleted, resuspended in PBS and then re-sedimented. The cell pellets were stored on ice and resuspended in PBS (mixed with 0.2% EDTA) only shortly before FACS measurement. This suspension was transferred to FACS tubes and the fluorescence of the cells was detected on the FACSCalibur™ (BD Biosciences, San Jose, California, USA). To achieve a separation between living and dead cells, the cell clouds were plotted linearly against FSC/SSC orientation in a dot plot diagram. Depending on cell size and granularity, the living cells were distinguished from cell debris and dead cells by placing a marker (gate) around the “living cell cloud”. Subsequently, the selected cell population was separated in another dot-plot diagram with FL-1/FL-2 alignment depending on their fluorescence properties (FL-1 for green fluorescence, FL-2 for orange intrinsic fluorescence). Depending on the approach, 150,000 to 1,000,000 living cells were analyzed. Recombination frequencies were determined from the proportion of green fluorescent cells in the living cell population.
K562/MLL cells were electroporated with these expression plasmids for the different Ku80 variants or the empty vector (control) and 24 h later treated for 4 h with the chemotherapeutic agent doxorubicin (2 μM). After washing the cells, they were cultured in fresh medium for a further 72 h. The subsequent detection of green fluorescent cells for analysis of recombination frequencies was achieved by FACS using a diagonal gate in a FL-1/FL-2 dot plot diagram. Living cells were pre-selected by FSC/SSC gating to distinguish between EGFP-positive and -negative within the living cells.
The peptides were introduced into K562/MLL cells by Nucleofector™ technology as described above. The cells were nucleofected with 0-600 μg peptide per 1×10^6 cells and treated with 2 μM doxorubicin for 4 h after 24 h. After washing, the cells were cultured for another 72 h in fresh medium. […] Subsequently, recombination frequencies were determined.
Cell survival was determined in parallel with the recombination measurements.

[2] = system: HeLa/MLL cells; assay: Cell survival of HeLa/MLL cells by FSC/SSC gating in FACS; type: cell-based, human; conditions: HeLa/MLL nucleofected with peptide; 0.5 μM doxorubicin 4 h; 72 h
Method: HeLa/MLL cells (0.5×10^6) were nucleofected with the peptide on the first day and split into three 6-wells for further cultivation. On the second day, the cells were treated with 0.5 μM doxorubicin for 4 h. […]. Afterwards, the medium was removed, the cells were washed with 2 ml PBS and 2 ml new medium was added. For FACS measurements, the cells were washed with PBS after 72 h of culture, 200 μl of trypsin (PAN Biotech, Aidenbach, Germany) was added and the reaction was stopped with medium. Genomic DNA was isolated without recultivation after doxorubicin treatment.
Use of the fluorescence-based assay system for recombination measurements with K562/MLL or HeLa/MLL cells with chromosomally integrated plasmid pHR-EGFP/3′EGFP-MLLbcr.fwd is described in detail in Ireno et al. 2014 and Gole et al. 2015, respectively. […] This suspension was transferred to FACS tubes and the fluorescence of the cells was detected on the FACSCalibur™ (BD Biosciences, San Jose, California, USA). […] Subsequently, the selected cell population was separated in another dot-plot diagram with FL-1/FL-2 alignment depending on their fluorescence properties (FL-1 for green fluorescence, FL-2 for orange intrinsic fluorescence). Depending on the approach, 150,000 to 1,000,000 living cells were analyzed. […]

[3] = system: MLLbcr rearrangements in K562/MLL cells; assay: Fluorescence-based (EGFP reconstitution) recombination assay for MLLbcr rearrangements in K562/MLL cells after doxorubicin; type: cell-based, human; conditions: expression plasmid electroporated into K562/MLL; 2 μM doxorubicin 4 h after 24 h; 72 h culture; vs empty vector control set to 100%
Method: as §1
Use of the fluorescence-based assay system for recombination measurements with K562/MLL or HeLa/MLL cells with chromosomally integrated plasmid pHR-EGFP/3′EGFP-MLLbcr.fwd is described in detail in Ireno et al. 2014 and Gole et al. 2015, respectively. For the acquisition of recombination data, cells were harvested, pelleted, resuspended in PBS and then re-sedimented. The cell pellets were stored on ice and resuspended in PBS (mixed with 0.2% EDTA) only shortly before FACS measurement. This suspension was transferred to FACS tubes and the fluorescence of the cells was detected on the FACSCalibur™ (BD Biosciences, San Jose, California, USA). To achieve a separation between living and dead cells, the cell clouds were plotted linearly against FSC/SSC orientation in a dot plot diagram.

[4] = K562/MLL nucleofected with 50 μg peptide
[5] = K562/MLL nucleofected with 100 μg peptide

Molecule: ITKEEASGSSVTAEEAKKFLAG [Ku1]
- effect of peptide on cell survival after doxorubicin treatment [1]: did not affect cell survival

Molecule: EIVVQDGITLITKAEASGSSVTAEEAKK [Ku3 mut1, reference compound]
- cell survival [1, 4]: not affected

Molecule: CC[C@H](C)[C@H](NC(=O)CNC(=O)[C@H](CC(=O)O)NC(=O)[C@H](CCC(N)=O)NC(=O)[C@@H](NC(=O)[C@@H](NC(=O)[C@@H](NC(=O)[C@@H](N)CCC(=O)O)[C@@H](C)CC)C(C)C)C(C)C)C(=O)N[C@H](C(=O)N[C@@H](CC(C)C)C(=O)N[C@H](C(=O)N[C@H](C(=O)N[C@@H](CCCCN)C(=O)N[C@@H](CCC(=O)O)C(=O)N[C@@H](CCC(=O)O)C(=O)N[C@@H](C)C(=O)N[C@@H](CO)C(=O)NCC(=O)N[C@@H](CO)C(=O)N[C@@H](CO)C(=O)N[C@H](C(=O)N[C@H](C(=O)N[C@@H](C)C(=O)N[C@@H](CCC(=O)O)C(=O)N[C@@H](CCC(=O)O)C(=O)N[C@@H](C)C(=O)N[C@@H](CCCCN)C(=O)N[C@@H](CCCCN)C(=O)O)[C@@H](C)O)C(C)C)[C@@H](C)O)[C@@H](C)CC)[C@@H](C)O [Ku3]
- effect of peptide on cell survival after doxorubicin treatment [1]: not affected
- cell survival [1, 4]: not affected
- cell survival [1, 5]: not affected
- toxic effects toward leukemia cells (summary statement) [1]: without exhibiting toxic effects
- effect on cell survival [2]: without affecting cell survival

Molecule: COc1cccc2c1C(=O)c1c(O)c3c(c(O)c1C2=O)C[C@@](O)(C(=O)CO)C[C@@H]3O[C@H]1C[C@H](N)[C@H](O)[C@H](C)O1 [doxorubicin, reference compound]
- cell survival after doxorubicin treatment ([1]; human, 4 h, 2 μM): 70-80%

Molecule: ITKEEASGSSVTAEEAKKFLA [SEQ ID No. 4]
- toxic effects toward leukemia cells (summary statement) [1]: without exhibiting toxic effects

Molecule: RVLVKQKKASFEEASNQLINHIEQFL [Ku2]
- reduction of cell survival after doxorubicin treatment to ([1]; K562/MLL nucleofected with 200-400 μg peptide): ≥ half
- toxicity of the peptide in K562/MLL cells [1]: caused toxicities

Molecule: ASFEEASNQLINHIEQFLDTNETPYFMKSI [Ku4]
- toxicity of the peptide in K562/MLL cells [1]: caused toxicities
- reduction of cell survival after doxorubicin treatment to ([1]; K562/MLL nucleofected with ≥300 μg peptide): ≥ half

Molecule: VDSTTIEKSIAEVAEEQESILKKVAGGT [scrambled peptide, reference compound]
- cell survival [1, 5]: not affected

B1: Ku80ct: Ku80 amino acids 592-709 fused behind the amino acids PTAKKLK of the nuclear localization signal, expressed from plasmid (protein, UniProt P13010 592-709, looked up, fragment)
chain: VNPAENFRVLVKQKKASFEEASNQLINHIEQFLDTNETPYFMKSIDCIRAFREEAIKFSEEQRFNNFLKALQEKVEIKQLNHFWEIVVQDGITLITKEEASGSSVTAEEAKKFLAPKD
modifications: N-terminal NLS peptide PTAKKLK
notes: Ku80 amino acids 592-709 fused behind the amino acids PTAKKLK of the nuclear localization signal, expressed from plasmid
- MLLbcr rearrangements (recombination frequency) lowered by [3]: 45%
